Results on 3 compounds are retold here after US4226879A, “Antibiotic composition” (Kyowa Hakko Kogyo Kabushiki Kaisha, priority 1976, dated 1980).

The assay concerns Eimeria tenella K-2. Nature of the assay: anticoccidial test in chicks (Example 4). The note with it: for Caecal lession (numbers of chicks), ++: grade ++ (middle); for Caecal lession (numbers of chicks), +++: grade +++ (heavy).
Where [1] appears, read: 0.025 % in diet, groups of 10 chicks.
[2] abbreviates: 0.0125 % in diet, groups of 10 chicks.
Where [3] appears, read: 0.0033 % in diet, groups of 10 chicks.
The mark [4] stands for this setting: 0.0066 % in diet, groups of 10 chicks.

Where a name gives a salt, the structure may show the parent alone.

Consider `CCCc1ncc(C[n+]2ccccc2C)c(N)n1` [Amprolium hydrochloride, reference compound], for which the Survival ratio is, setting by setting: (0.0125 % in diet) 40%; (0.025 % in diet) 70%. The “Caecal lession (numbers of chicks), ++” value under setting [1] is 2 numbers of chicks. Further, the “Caecal lession (numbers of chicks), +++” value is 10 numbers of chicks under setting [2] and 8 numbers of chicks under setting [1].
The corresponding values for `Cc1nc(C)c(Cl)c(O)c1Cl` [Clopidol, reference compound] are 50%, 70%, 4 numbers of chicks, 10 numbers of chicks and 6 numbers of chicks.
`N=C(N/N=C/c1ccc(Cl)cc1)N/N=C/c1ccc(Cl)cc1` [Robenidine hydrochloride, reference compound]: the Survival ratio amounted to 80% (0.0033 % in diet) and 100% (0.0066 % in diet). The “Caecal lession (numbers of chicks), +” value (grade + (light), 0.0066 % in diet, groups of 10 chicks) was 2 numbers of chicks. Also, the “Caecal lession (numbers of chicks), ++” value runs as follows: under setting [3], 2 numbers of chicks; under setting [4], 5 numbers of chicks. The “Caecal lession (numbers of chicks), +++” value runs as follows: under setting [3], 8 numbers of chicks; under setting [4], 3 numbers of chicks.
